Patent US10450263B2, “Benzo annulenes as antiviral agents” (Southern Research Institute, priority 2017, dated 2019)

Columns and labels:
Chikungunya virus = assay: Evaluation of antiviral activity against Chikungunya virus (EC90); assay type: cell-based; conditions: Chikungunya virus, read-out: EC90 (μM) CHIKV, concentration required for 90% inhibition of CHIKV
From the text: EC90 refers to the concentration of the compound that is required for 90% antagonism or inhibition of CHIKV. EC90 also refers to the concentration of a substance that is required for 90% antagonism or inhibition of CHIKV in vivo.
(§1) The compounds below in Table 1 were synthesized with methods identical or analogous to those described herein. The requisite starting materials were commercially available, described in the literature, or readily synthesized by one skilled in the art of organic synthesis.

[1] = CC50 reported alongside the CHIKV antiviral assay (cytotoxicity); assay type: cell-based; conditions: cell line not given
From the text: as §1

SMILES | EC90 (Chikungunya virus) [µM] | CC50 [1] [µM]
CC(C)(C)c1ccc(C(=O)Nc2ccc3c(c2OC(F)(F)F)CCCCC3)cc1 [Compound 87, 4-(tert-butyl)-N-(1-(trifluoromethoxy)-6,7,8,9-tetrahydro-5H-benzo[7]annulen-2-yl)benzamide] | 19.5 | > 30
CC(C)(C)c1ccc(C(=O)Nc2cc3c(cc2OC(F)(F)F)CCCCC3)cc1 [Compound 13, 4-(tert-butyl)-N-(3-(trifluoromethoxy)-6,7,8,9-tetrahydro-5H-benzo[7]annulen-2-yl)benzamide] | 13.7 | > 25
CCn1nc(C(=O)Nc2cc3c(cc2OC)CCCCC3)cc1C [Compound 31, 1-Ethyl-N-(3-methoxy-6,7,8,9-tetrahydro-5H-benzo[7]annulen-2-yl)-5-methyl-1H-pyrazole-3-carboxamide] | 0.79 | > 30
CC(C)(C)c1ccc(C(=O)Nc2ccc3c(c2)CCCCC3)cc1 [Compound 19, 4-(tert-Butyl)-N-(6,7,8,9-tetrahydro-5H-benzo[7]annulen-2-yl)benzamide] | 0.7 | 79.1
COc1cc2c(cc1NC(=O)c1ccc(C(C)(C)C)s1)CCCCC2 [Compound 38, 5-(tert-Butyl)-N-(3-methoxy-6,7,8,9-tetrahydro-5H-benzo[7]annulen-2-yl)thiophene-2-carboxamide] | 3.1 | 32
COc1cc2c(cc1N1Cc3ccc(C(C)(C)C)cc3C1=O)CCCCC2 [Compound 59, 6-(tert-Butyl)-2-(3-methoxy-6,7,8,9-tetrahydro-5H-benzo[7]annulen-2-yl)isoindolin-1-ONE] | > 10 | > 30
COc1cc2c(cc1N1Cc3cc(C(C)(C)C)ccc3C1=O)CCCCC2 [Compound 60, 5-(tert-Butyl)-2-(3-methoxy-6,7,8,9-tetrahydro-5H-benzo[7]annulen-2-yl)isoindolin-1-one] | > 10 | > 30
COc1cc2c(cc1NC(=O)c1cc(C(C)(C)C)c(O)c(C(C)(C)C)c1)CCCCC2 [Compound 70, 3,5-Di-tert-butyl-4-hydroxy-N-(3-methoxy-6,7,8,9-tetrahydro-5H-benzo[7]annulen-2-yl)benzamide] | 44.8 | > 30
COc1cc2c(cc1NC(=O)c1ccccc1)CCCCC2 [Compound 83, N-(3-methoxy-6,7,8,9-tetrahydro-5H-benzo[7]annulen-2-yl)benzamide] | > 10 | > 30
CC(C)(C)c1ccc(C(=O)Nc2cc3c(cc2OCc2ccccn2)CCCCC3)cc1 [Compound 85, 4-(tert-Butyl)-N-(3-(pyridin-2-ylmethoxy)-6,7,8,9-tetrahydro-5H-benzo[7]annulen-2-yl)benzamide] | > 10 | 9.4
COc1cc2c(cc1NC(=O)c1cc(-c3ccccc3)on1)CCCCC2 [Compound 36, N-(3-methoxy-6,7,8,9-tetrahydro-5H-benzo[7]annulen-2-yl)-5-phenylisoxazole-3-carboxamide] | 9 | > 30
COc1cc2c(cc1NC(=O)c1ccc(Cl)cc1)CCCCC2 [Compound 71, 4-Chloro-N-(3-methoxy-6,7,8,9-tetrahydro-5H-benzo[7]annulen-2-yl)benzamide] | 6.4 | > 30
CCCOc1cc2c(cc1NC(=O)c1ccc(C(C)(C)C)cc1)CCCCC2 [Compound 86, 4-(tert-Butyl)-N-(3-propoxy-6,7,8,9-tetrahydro-5H-benzo[7]annulen-2-yl)benzamide] | 7 | > 30
COc1cc2c(cc1NC(=O)c1oc3ccccc3c1C)CCCCC2 [Compound 79, N-(3-methoxy-6,7,8,9-tetrahydro-5H-benzo[7]annulen-2-yl)-3-methylbenzofuran-2-carboxamide] | > 10 | > 30
COc1cc2c(cc1NC(=O)c1cc(C)n(C(C)(C)C)n1)CCCCC2 [Compound 61] | 5.64 | > 30
CC(C)(C)n1nc(C(=O)Nc2ccc3c(c2)CCCCC3)cc1C(F)(F)F [Compound 27, 1-(tert-butyl)-N-(6,7,8,9-tetrahydro-5H-benzo[7]annulen-2-yl)-5-(trifluoromethyl)-1H-pyrazole-3-carboxamide] | > 10 | > 30
COc1cc2c(cc1NC(=O)c1ccc(C(C)(C)CO)cc1)CCCCC2 [Compound 47] | 7.1 | 96.3
COCCOc1cc2c(cc1NC(=O)c1ccc(C(C)(C)C)cc1)CCCCC2 [Compound 21, 4-(tert-Butyl)-N-(3-(2-methoxyethoxy)-6,7,8,9-tetrahydro-5H-benzo[7]annulen-2-yl)benzamide] | > 30 | > 30

SMILES | EC90 (Chikungunya virus) [µM] | CC50 [1] [µM]
COc1cc2c(cc1NC(=O)c1ccc(C(F)(F)F)cc1)CCCCC2 [Compound 74, N-(3-methoxy-6,7,8,9-tetrahydro-5H-benzo[7]annulen-2-yl)-4-(trifluoromethyl)benzamide] | 7.4 | > 30
COc1cc2c(cc1NC(=O)c1ccc(C(=O)O)cc1)CCCCC2 [Compound 55] | > 10 | > 30
COc1cc2c(cc1NC(=O)C13C[C@H]4C[C@@H](C1)C[C@@H](C3)C4)CCCCC2 [Compound 42, (3r,5r,7r)-N-(3-methoxy-6,7,8,9-tetrahydro-5H-benzo[7]annulen-2-yl)adamantane-1-carboxamide] | 12.1 | > 30
COc1cc2c(cc1NC(=O)c1ccc(F)cc1)CCCCC2 [Compound 78, 4-Fluoro-N-(3-methoxy-6,7,8,9-tetrahydro-5H-benzo[7]annulen-2-yl)benzamide] | > 10 | > 30
COc1cc2c(cc1NC(=O)Cc1cccs1)CCCCC2 [Compound 73, N-(3-Methoxy-6,7,8,9-tetrahydro-5H-benzo[7]annulen-2-yl)-2-(thiophen-2-yl)acetamide] | 18.7 | > 30
CC(C)(C)c1ccc(C(=O)Nc2cc3c(cc2CO)CCCCC3)cc1 [Compound 29] | > 10 | > 30
COc1cc2c(cc1NC(=O)c1cnc(C)s1)CCCCC2 [Compound 33, N-(3-methoxy-6,7,8,9-tetrahydro-5H-benzo[7]annulen-2-yl)-2-methylthiazole-5-carboxamide] | > 30 | > 30
COc1cc2c(cc1NC(=O)c1ccc(C(O)(C(F)(F)F)C(F)(F)F)cc1)CCCCC2 [Compound 48, 4-(1,1,1,3,3,3-Hexafluoro-2-hydroxypropan-2-yl)-N-(3-methoxy-6,7,8,9-tetrahydro-5H-benzo[7]annulen-2-yl)benzamide] | 2.8 | 28.9
CC(=O)Oc1cc2c(cc1NC(=O)c1ccc(C(C)(C)C)cc1)CCCCC2 [Compound 16, 3-(4-(tert-Butyl)benzamido)-6,7,8,9-tetrahydro-5H-benzo[7]annulen-2-yl acetate] | 2.8 | > 30
COc1cc2c(cc1NC(=O)c1cc(F)c(C(C)(C)C)c(F)c1)CCCCC2 [Compound 90, 4-(tert-butyl)-3,5-difluoro-N-(3-methoxy-6,7,8,9-tetrahydro-5H-benzo[7]annulen-2-yl)benzamide] | 3.3 | > 30
COc1cc2c(cc1NC(=O)c1ccccc1C(C)(C)C)CCCCC2 [Compound 43, 2-(tert-Butyl)-N-(3-methoxy-6,7,8,9-tetrahydro-5H-benzo[7]annulen-2-yl)benzamide] | 3.2 | > 30
COc1cc2c(cc1NC(=O)c1ccc(N(C)C)cc1)CCCCC2 [Compound 76, 4-(Dimethylamino)-N-(3-methoxy-6,7,8,9-tetrahydro-5H-benzo[7]annulen-2-yl)benzamide] | > 10 | > 30
COc1c(NC(=O)c2ccc(C(C)(C)C)cc2)cc2c(c1F)CCCCC2 [Compound 23, 4-(tert-butyl)-N-(4-fluoro-3-methoxy-6,7,8,9-tetrahydro-5H-benzo[7]annulen-2-yl)benzamide] | 12.5 | > 30
COc1cc2c(cc1NC(=O)c1ccc(C3CC3)cc1)CCCCC2 [Compound 80, 4-Cyclopropyl-N-(3-methoxy-6,7,8,9-tetrahydro-5H-benzo[7]annulen-2-yl)benzamide] | 12.3 | > 30
COc1c(NC(=O)c2cnc(C(C)(C)C)s2)cc2c(c1F)CCCCC2 [Compound 24, 2-(tert-Butyl)-N-(4-fluoro-3-methoxy-6,7,8,9-tetrahydro-5H-benzo[7]annulen-2-yl)thiazole-5-carboxamide] | > 10 | > 30
COc1cc2c(cc1NC(=O)c1ccc(Cl)cc1I)CCCCC2 [Compound 75, 4-Chloro-2-iodo-N-(3-methoxy-6,7,8,9-tetrahydro-5H-benzo[7]annulen-2-yl)benzamide] | 6.1 | > 30
CC(C)(C)c1ccc(C(=O)Nc2cc3c(cc2N)CCCCC3)cc1 [Compound 20, N-(3-amino-6,7,8,9-tetrahydro-5H-benzo[7]annulen-2-yl)-4-(tert-butyl)benzamide] | > 30 | > 30
COc1cc2c(cc1NC(=O)c1ccc(C(C)(C)C(F)(F)F)cc1)CCCCC2 [Compound 52, N-(3-methoxy-6,7,8,9-tetrahydro-5H-benzo[7]annulen-2-yl)-4-(1,1,1-trifluoro-2-methylpropan-2-yl)benzamide] | 3.47 | 19.1
